Test systems include HOP-62 NSCLC; LOX IMVI melanoma; OVCAR-4 ovarian; UO-31 renal; MCF7 breast; RXF 393 renal; SF-295 CNS; RPMI-8226 leukemia.
Common to all, as to assay: inhibition of tumour cell growth, NCI panel, 48 h

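48-hour exposure; five concentrations; linearly interpolated endpoints. GI50 marks 50% less growth. TGI denotes the concentration required for complete inhibition of growth.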 Bounds are passed on as bounds.

The values below come from PubChem BioAssay (NCI).

As for `CN(C(=O)c1ccc(Cl)s1)C(=S)N(C)C(=O)c1ccc(Cl)s1`, the TGI in the test with HOP-62 NSCLC, in the test with LOX IMVI melanoma, with OVCAR-4 ovarian, in the test with UO-31 renal, in the test on MCF7 breast and in the test on RXF 393 renal was above 10 µM each time. The TGI in the test on SF-295 CNS and in the test on RPMI-8226 leukemia was above 10 µM each time.

For the compound `O=C1c2ccccc2CC12Cc1ccc3c(c1C2)CCC3` (stereo not given), the TGI is 69.5 µM in the test with HOP-62 NSCLC; 24.8 µM with LOX IMVI melanoma; above 100 µM with OVCAR-4 ovarian; above 100 µM in the test with UO-31 renal; 39.6 µM with MCF7 breast; 38.7 µM in the test with RXF 393 renal. Moreover, the TGI with SF-295 CNS worked out at 76.5 µM; with RPMI-8226 leukemia it was 59.6 µM.

Turning to `Cc1cc(S(=O)(=O)Nc2nnc3cc(C(F)(F)F)cc(C)n23)c(S)cc1Cl`, the TGI in the test with HOP-62 NSCLC was above 100 µM; in the test on LOX IMVI melanoma, above 100 µM; in the test on OVCAR-4 ovarian, above 100 µM; in the test with UO-31 renal it was above 100 µM; in the test on MCF7 breast it was above 31.6 µM; in the test on RXF 393 renal, above 100 µM. Also, the TGI in the test with SF-295 CNS and in the test with RPMI-8226 leukemia was above 100 µM each time.

Regarding `CCCCCCCCCCCCCCCCCCOCC(O)COP(=O)(O)OCC1OC(n2cc(F)c(=O)[nH]c2=O)CC1O` (stereo not given), the TGI amounted to 4.88 µM in the test on HOP-62 NSCLC; 15.1 µM in the test on LOX IMVI melanoma; 32.2 µM in the test with OVCAR-4 ovarian; 19.6 µM in the test with UO-31 renal; 48.3 µM with MCF7 breast; 29 µM with RXF 393 renal. For the same compound, the TGI with SF-295 CNS was 19 µM; in the test on RPMI-8226 leukemia it was 22.5 µM.

For `N#CCc1nc(C#N)c(N)o1`, the TGI in the test on HOP-62 NSCLC, in the test with LOX IMVI melanoma, in the test with OVCAR-4 ovarian, in the test with UO-31 renal, with MCF7 breast and with RXF 393 renal was above 100 µM in each case. In addition, the TGI with SF-295 CNS and with RPMI-8226 leukemia was above 100 µM in each case. For the same compound, the GI50 with LOX IMVI melanoma and with RPMI-8226 leukemia was above 100 µM throughout.

Regarding `CCOC(=O)c1c(N2CCOCC2)[nH]c(=O)c(C(c2ccc(OC)cc2)c2c(O)c(C(=O)OCC)c(N3CCOCC3)[nH]c2=O)c1O`, the TGI in the test on HOP-62 NSCLC, in the test on LOX IMVI melanoma, with OVCAR-4 ovarian, with UO-31 renal, in the test on MCF7 breast and with RXF 393 renal was above 100 µM in each case. Further, the TGI in the test with SF-295 CNS and in the test with RPMI-8226 leukemia was above 100 µM each time.

Take `NC(=O)CC(Nc1ncc2c(n1)-c1ccccc1OC2)C(=O)O` (stereo not given): the TGI in the test with HOP-62 NSCLC, with LOX IMVI melanoma, with OVCAR-4 ovarian, in the test with UO-31 renal, in the test on MCF7 breast and in the test on RXF 393 renal was above 100 µM in each case. Also, the TGI in the test with SF-295 CNS is above 100 µM; in the test on RPMI-8226 leukemia it was 82.5 µM.

Turning to `CC(C)(C)N1Cc2ccccc2/C(=C/Sc2ccccc2)C1=O`, the TGI with HOP-62 NSCLC amounted to 33.8 µM; with LOX IMVI melanoma, 11.3 µM; in the test with OVCAR-4 ovarian it was 19.6 µM; with UO-31 renal, 24.8 µM; in the test on MCF7 breast, 24.3 µM; in the test with RXF 393 renal it was 34 µM. The TGI with SF-295 CNS amounted to 33.8 µM; in the test on RPMI-8226 leukemia it was 26 µM.

On to `Cc1cc(S(=O)(=O)Nc2nc(N)nc(N3N=CCC3C)n2)c(S)cc1Cl` (stereo not given), for which the TGI in the test with HOP-62 NSCLC, in the test on LOX IMVI melanoma, in the test with OVCAR-4 ovarian, with UO-31 renal, in the test on MCF7 breast and with RXF 393 renal was above 10 µM in each case. In addition, the TGI in the test with SF-295 CNS and in the test on RPMI-8226 leukemia was above 10 µM in each case.

For the compound `CCCCSc1n/c(=C\c2ccc(N(C)C)cc2)c2nnnn12`, the TGI in the test on HOP-62 NSCLC, in the test on LOX IMVI melanoma, with OVCAR-4 ovarian, in the test on UO-31 renal, with MCF7 breast and in the test on RXF 393 renal was above 100 µM in each case. Moreover, the TGI in the test with SF-295 CNS and with RPMI-8226 leukemia was above 100 µM throughout.

For the compound `COc1cc2ccnc3c2c(c1O)N(C)C=C3`, the TGI in the test with HOP-62 NSCLC is 46.4 µM; in the test with LOX IMVI melanoma, above 50.6 µM; in the test on OVCAR-4 ovarian, 32.4 µM; with UO-31 renal, 22.3 µM; in the test on MCF7 breast, above 91.6 µM; with RXF 393 renal, 30 µM. Besides, the TGI is 28.6 µM with SF-295 CNS and above 100 µM in the test on RPMI-8226 leukemia.

Consider `COC(OC)C(O)C1OC=CC1n1cnc2c(N)ncnc21` (stereo not given), for which the TGI in the test on HOP-62 NSCLC, in the test with LOX IMVI melanoma, in the test with OVCAR-4 ovarian, with UO-31 renal, in the test on MCF7 breast and in the test with RXF 393 renal was above 100 µM throughout. Further, the TGI in the test with SF-295 CNS and in the test on RPMI-8226 leukemia was above 100 µM in each case.

As to `CC[N+](C)(CC)CCN1C(=O)c2ccccc2S1(=O)=O`, the TGI in the test on HOP-62 NSCLC, in the test with LOX IMVI melanoma, in the test on OVCAR-4 ovarian, in the test with UO-31 renal, with MCF7 breast and in the test on RXF 393 renal was above 100 µM each time. For the same compound, the TGI in the test on SF-295 CNS and in the test with RPMI-8226 leukemia was above 100 µM in each case.

For `CCOC(=O)c1cn(-c2ccc(Cl)cc2)c(=O)n2c1nc1ccccc12`, the TGI in the test with HOP-62 NSCLC, in the test on LOX IMVI melanoma, with OVCAR-4 ovarian, in the test with UO-31 renal, in the test with MCF7 breast and in the test on RXF 393 renal was above 100 µM in each case. Also, the TGI in the test on SF-295 CNS and in the test with RPMI-8226 leukemia was above 100 µM throughout.

For `CN1C2CC(=O)CC1[C@@H]1OC(c3ccccc3)O[C@H]21` (stereo not given in full), the TGI in the test on HOP-62 NSCLC, in the test on LOX IMVI melanoma, in the test on OVCAR-4 ovarian, in the test on UO-31 renal, in the test on MCF7 breast and with RXF 393 renal was above 100 µM in each case. In addition, the TGI in the test with SF-295 CNS and with RPMI-8226 leukemia was above 100 µM throughout.

With `CSCCC(NC(=O)OC(C)(C)C)C(=O)NCCNc1ccc(NCCNC(=O)C(CCSC)NC(=O)OC(C)(C)C)c2c1C(=O)c1ccccc1C2=O` (stereo not given), the TGI with HOP-62 NSCLC is 8.2 µM; in the test on LOX IMVI melanoma, 22.8 µM; in the test with OVCAR-4 ovarian, 24.8 µM; in the test on UO-31 renal, above 100 µM; in the test on MCF7 breast, 19.2 µM; in the test on RXF 393 renal, 52.8 µM. For the same compound, the results for the TGI in the test on SF-295 CNS and in the test with RPMI-8226 leukemia were 21.1 µM and 12.2 µM, respectively.
